According to patent US7179814B2, “Agents for controlling plant pests” (priority 1998, dated 2007):

Legend:
Botrytis cinerea = experiment: Botrytis test (bean)/protective; format: in vivo; settings: single active compound
Method: (§1) To produce a suitable preparation of active compound, 1 part by weight of active compound or active compound combination is mixed with the stated amounts of solvent and emulsifier, and the concentrate is diluted with water to the desired concentration, or a commercial formulation of active compound or active compound combination is diluted with water to the desired concentration.
To test for protective activity, young plants are sprayed with the active compound preparation at the stated application rate. After the spray coating has dried on, 2 small pieces of agar colonized by Botrytis cinerea are placed onto each leaf. The inoculated plants are placed in a dark chamber at approximately 20° C. and 100% relative atmospheric humidity.
2 days after the inoculation, the size of the disease spots on the leaves is evaluated. 0% means an efficacy which corresponds to that of the control, whereas an efficacy of 100% means that no infection is observed.

Fusarium culmorum = Fusarium culmorum test (wheat)/seed treatment; format: in vivo; settings: 75 g/ha, dry seed dressing, approximately 3 weeks after sowing
Method: The active compounds are applied as a dry dressing. They are prepared by extending the active compound in question with ground minerals to give a finely pulverulent mixture which ensures even distribution on the surface of the seeds.
For the dressing, the infected seeds are shaken with the dressing in a closed glass bottle for 3 minutes.
2×100 seeds of the wheat are sown at a depth of 1 cm into standard soil, and the wheat is cultivated in a greenhouse at a temperature of approximately 18° C. and at a relative atmospheric humidity of approximately 95% in seed containers receiving 15 hours of light per day.
The evaluation of the plants for symptoms is carried out approximately 3 weeks after sowding. 0% means an efficacy which corresponds to that of the control, whereas an efficacy of 100% means that no infection is observed.

[1] = tested on: caterpillars of the diamondback moth (Plutella xylostella); experiment: Plutella test (cabbage leaf dip); format: in vivo
Method: (§2) To produce a suitable preparation of active compound, 1 part by weight of an active compound or an active compound combination is mixed with the stated amounts of solvent and emulsifier, and the concentrate is diluted with water to the desired concentration.
Cabbage leaves (Brassica oleracea) are treated by being dipped into the preparation of active compound of the desired concentration and are populated with caterpillars of the diamondback moth (Plutella xylostella) while the leaves are still moist.
After the desired period of time, the kill in % is determined 100% means that all caterpillars have been killed; 0% means that none of the caterpillars have been killed.

green peach aphid = experiment: Myzus test (cabbage leaf dip); format: in vivo, Myzus (green peach aphid); settings: concentration 0.00016 %
Method: as §2
Cabbage leaves (Brassica oleracea) which are heavily infested by the green peach aphid are treated by being dipped into the active compound preparation of the desired concentration.
After the desired period of time, the kill in % is determined. 100% means that all aphids have been killed; 0% means that none of the aphids have been killed.

Puccinia recondita = experiment: Puccinia test (wheat)/protective; format: in vivo; settings: 62.5 g/ha, 10 days after inoculation
Method: as §1
(§3) To test for protective activity, young plants are sprayed with the active compound preparation at the stated application rate. After the spray coating has dried on, the plants are sprayed with a conidia suspension of Puccinia recondita. The plants remain in an incubation cabin at 20° C. and 100% relative atmospheric humidity for 48 hours.
The plants are then placed in a greenhouse at a temperature of approximately 20° C. and a relative atmospheric humidity of 80% to promote the development of rust pustules.
Evaluation is carried out 10 days after the inoculation. 0% means an efficacy which corresponds to that of the control, whereas an efficacy of 100% means that no infection is observed.

Spodoptera frugiperda = experiment: Critical concentration test/soil insects, Spodoptera frugiperda; format: in vivo; settings: 120 h, 5 days after infestation, read-out: Kill in %
Method: (§4) To produce a suitable preparation of active compound, 1 part by weight of the active compound or the active compound mixture is mixed with the stated amounts of solvent and emulsifier, and the concentrate is diluted with water to the desired concentration.
(§5) The active compound preparation is mixed intimately with soil. Here, the concentration of the active compound in the preparation is almost irrelevant; only the amount by weight of active compound or active compound mixture per volume unit of soil, which is stated in ppm (mg/l), matters.
Soil is filled into 0.5 l pots and these are allowed to stand at 20° C. Immediately after preparation, 3 pre-germinated maize corns are placed into each pot. After the maize corns have emerged, boring sleeves are placed onto the pots. 9 days after preparation, the maize is populated with the test insects. After a further 5 days, the kill in % is determined. 100% means that all test insects have been killed; 0% means that the number of insects which are still alive is the same as for the untreated control.

Pyrenophora teres = Pyrenophora teres test (barley)/protective; format: in vivo; settings: single active compound
Method: as §1
as §3, with “Pyrenophora teres.” for “Puccinia recondita.”
The plants are then placed in a greenhouse at a temperature of approximately 20° C. and a relative atmospheric humidity of approximately 80%.
Evaluation is carried out 7 days after the inoculation. 0% means an efficacy which corresponds to that of the control, whereas an efficacy of 100% means that no infection is observed.

[2] = tested on: Diabrotica balteata larvae in soil; experiment: Critical concentration test/soil insects, Diabrotica balteata; format: in vivo; settings: Diabrotica balteata, 168 h, 7 days after infestation, read-out: Kill in %
Method: as §4, §5
Soil is filled into 0.5 l pots and these are allowed to stand at 20° C. Immediately after preparation, 5 pre-germinated maize corns are placed into each pot. After 2 days, the test insects are placed into the treated soil. After a further 7 days, the kill in % is determined. 100% means that all test insects have been killed; 0% means that none of the test insects have been killed.

[3] = tested on: larvae of the mustard beetle (Phaedon cochleariae); experiment: Phaedon larvae test (cabbage leaf dip); format: in vivo
Method: as §2
Cabbage leaves (Brassica oleracea) are treated by being dipped into the preparation of active compound of the desired concentration and are populated with larvae of the mustard beetle (Phaedon cochleariae) while the leaves are still moist.
After the desired period of time, the kill in % is determined. 100% means that all beetle larvae have been killed; 0% means that none of the beetle larvae have been killed.

[4] = tested on: Heliothis virescens caterpillars; experiment: Heliothis virescens test (soya bean shoot dip); format: in vivo; settings: concentration 0.00016 %
Method: as §2
Soya bean shoots (Glycine max) are treated by being dipped into the active compound preparation of the desired concentration and are populated with Heliothis virescens caterpillars while the leaves are still moist.
After the desired period of time, the kill in % is determined. 100% means that all caterpillars have been killed; 0% means that none of the caterpillars have been killed.

**Q.** How did the Efficacy in % (Botrytis cinerea; 10 g/ha, 2 days after inoculation) turn out when `N#C/N=C1/SCCN1Cc1ccc(Cl)nc1` [formula (I)] was run?
**A.** 0%

**Q.** And the Efficacy in % (Botrytis cinerea; 40 g/ha)?
**A.** 0%

**Q.** What about the Efficacy in % (Botrytis cinerea; 500 g/ha) of the same compound?
**A.** 0%

**Q.** And the Efficacy in % (Fusarium culmorum)?
**A.** 0%

**Q.** And the Kill in % ([1]; concentration 0.0008 %)?
**A.** 0%

**Q.** What about the Kill in % ([1]; concentration 0.004 %) of the same compound?
**A.** 60%

**Q.** What about the Kill in % (green peach aphid) of the same compound?
**A.** 25%

**Q.** What about the Efficacy in % (Puccinia recondita) of the same compound?
**A.** 0%

**Q.** And the pest or weed control at 5 ppm (Spodoptera frugiperda; 5.00 ppm in soil)?
**A.** 0%

**Q.** And the pest or weed control at 10 ppm (Spodoptera frugiperda; 10.00 ppm in soil)?
**A.** 50%

**Q.** What about the pest or weed control at 20 ppm (Spodoptera frugiperda; 20.00 ppm in soil) of the same compound?
**A.** 100%

**Q.** What about the “Efficacy in % calculated/found” value (Pyrenophora teres; 18.75 g/ha) of the same compound?
**A.** 20%

**Q.** What about the “Efficacy in % calculated/found” value (Pyrenophora teres; 62.5 g/ha, 7 days after inoculation) of the same compound?
**A.** 0%

**Q.** What about the pest or weed control at 1.25 ppm ([2]; 1.25 ppm in soil) of the same compound?
**A.** 0%

**Q.** And the pest or weed control at 2.5 ppm ([2]; 2.50 ppm in soil)?
**A.** 40%

**Q.** And the pest or weed control at 5 ppm ([2]; 5.00 ppm in soil)?
**A.** 90%

**Q.** What about the Kill in % ([3]; concentration 0.00016 %) of the same compound?
**A.** 5%

**Q.** And the Kill in % ([3]; concentration 0.0008 %)?
**A.** 40%

**Q.** What about the Kill in % [4] of the same compound?
**A.** 15%
